The results in this text go back to article PMC9441068, “Novel eIF4A1 inhibitors with anti‐tumor activity in lymphoma” (Molecular Medicine, 2022).

Common to all, as to type: biochemical
Assay [1] concerns the target T1, human eIF4A1 (Homo sapiens, UniProt P60842). Kind of assay: malachite green phosphate release (RNA-dependent ATPase) assay.
The target in assay [2] is T1, human eIF4A1. Kind of assay: malachite green phosphate release (RNA-dependent ATPase) assay; also Cy3/Cy5 RNA unwinding assay (IC50 […]).
The target of assay [3] is T1, human eIF4A1. The assay is described as above. The source holds these as a separate data set.

By IC50 is commonly meant the midpoint of a concentration-inhibition curve. A higher IC50 goes with weaker potency.

T1 sequence (P60842 2-406): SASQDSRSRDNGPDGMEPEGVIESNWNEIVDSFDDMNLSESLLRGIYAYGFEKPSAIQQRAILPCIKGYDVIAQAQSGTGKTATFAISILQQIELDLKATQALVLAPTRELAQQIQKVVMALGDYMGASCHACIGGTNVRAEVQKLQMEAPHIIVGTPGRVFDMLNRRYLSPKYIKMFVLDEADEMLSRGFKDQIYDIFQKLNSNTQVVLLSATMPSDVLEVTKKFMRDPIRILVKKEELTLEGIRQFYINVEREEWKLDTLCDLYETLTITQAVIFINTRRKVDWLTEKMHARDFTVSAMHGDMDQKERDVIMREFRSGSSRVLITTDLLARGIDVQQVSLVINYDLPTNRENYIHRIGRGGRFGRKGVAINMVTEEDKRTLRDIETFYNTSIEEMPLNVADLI

In turn, `CC(=NNC(=O)c1nnn(-c2nonc2N)c1CSc1nncn1C)c1cccc(O)c1` [RBF98] came in with an IC50 against human eIF4A1 [1] of 3000 nM. In turn, `CC(=NNC(=O)c1nnn(-c2nonc2N)c1CSc1nncn1C)c1ccccc1O` [RBF197] gave an IC50 at human eIF4A1 [2] of 0.0552 nM. In turn, `CC(=NNC(=O)c1nnn(-c2nonc2N)c1CSc1nncn1C)c1ccccc1O` [RBF203] came in with a half-maximal inhibitory concentration (IC50) on human eIF4A1 [1] of 0.209 nM.

Regarding `Cn1cnnc1SCc1c(C(=O)NN=Cc2ccccc2O)nnn1-c1nonc1N` [RBF208], 0.0741 nM corresponded to half-maximal inhibition against human eIF4A1 [3] (IC50).
